# Reference: paper PMC4865847, “Putative histidine kinase inhibitors with antibacterial effect against multi-drug resistant clinical isolates identified by in vitro and in silico screens” (Scientific Reports, 2016)
# pIC50: −log10 of the molar value. Like-named read-outs stand apart in the source and are kept apart here.
# Experiments:
# [1] = Hemolysis assay; assay type: cell-based; conditions: human
# Experimental: Hemolytic activity against human erythrocytes taken from a healthy donor was measured as previously described. The hemolysis experiments were carried out in accordance with the guidelines of the United Arab Emirates University (UAEU) Research Ethics Review Board. All experimental protocols were approved by the Research Ethics Review Board of UAEU and informed consent was obtained from all donors.
# [2] = tested on: Escherichia coli; test: Antibacterial susceptibility testing (MIC/MBC), E. coli; assay type: cell-based
# Experimental: (§1) Minimal inhibitory concentrations (MICs) were determined following a standard double-dilution method. […] For S. pneumoniae MICs were determined by adapting the standard double-dilution method to anaerobic conditions and of this microorganism (use of Todd Hewitt Yeast extract with 200 U/mL of catalase and continuous monitoring of growth).
# [3] = tested on: Staphylococcus epidermidis; test: Antibacterial susceptibility testing (MIC/MBC), S. epidermidis; assay type: cell-based; conditions: Staphylococcus epidermidis
# Experimental: as §1
# [4] = target: T1, S. pneumoniae WalK (Streptococcus pneumoniae, UniProt Q8DPL8); test: In vitro autophosphorylation kinase assay with γ-32P-ATP, WalK; assay type: biochemical; conditions: for pIC50: autophosphorylation, one time point (30 sec), 10% DMSO, read-out: IC50 WalK
# T1 construct: WalK (amino acids from 208 to 449); N-terminal His6-3C site of vector pOPINF (own knowledge of the vector); made in house; host or cells: E. coli RIL
# Experimental: To evaluate the inhibitory capacity of selected hits from DSF, SBVS and LBSS in vitro autophosphorylation kinase assays with γ-^32P-ATP were performed as previously described. Ligands were dissolved in 100% DMSO. […] Controls lacking ligands contained an equal concentration of DMSO. Inhibition of autophosphorylation was determined by incubating 0.12 mg/ml (≈4 μM) HK and up to 20 mM fragment in kinase buffer (50 mM Tris HCl, pH 8.5, 50 mM KCl, 5 mM MgCl2, 0.5 mM EDTA and 0.1 mM DTT). Autophosporylation reactions were initiated by addition of 0.1 μCi/μl γ-^32P-ATP containing from 0.03 to 0.06 μM ATP (final concentrations). Autophosphorylation was quenched with 2xSDS-PAGE sample buffer supplemented with 50 mM EDTA. […] After electrophoresis, the bottoms of the gels were removed to lower the background from the unincorporated radiolabeled ATP. Gels were dried without staining on a Bio-Rad Gel Air drying system and the phosphorylated protein was quantified by phosphor-imaging. Prism GraphPad was used for curve fitting and statistical analysis.
# [5] = tested on: Streptococcus pneumoniae; test: Antibacterial susceptibility testing (MIC), S. pneumoniae; assay type: cell-based; conditions: strain 49619
# Experimental: (§2) Bacterial strains used in this study for antibacterial susceptibility testing (Table S5) were propagated using standard microbiological procedures. Minimal inhibitory concentrations (MICs) were determined following a standard double-dilution method. MICs were recorded as the lowest concentration of the compound where no visible growth was observed. After plating the dilutions around the MIC or growing them in fresh MH media, minimal bactericidal concentration (MBC) was recorded as the lowest concentration of the compound at which no colonies were formed or no growth was observed, respectively. For S. pneumoniae MICs were determined by adapting the standard double-dilution method to anaerobic conditions and of this microorganism (use of Todd Hewitt Yeast extract with 200 U/mL of catalase and continuous monitoring of growth).
# [6] = target: T2, E. coli PhoR (PhoR^E) (Escherichia coli, UniProt P08400); test: In vitro autophosphorylation kinase assay with γ-32P-ATP, PhoR^E; assay type: biochemical; conditions: for pIC50: autophosphorylation, one time point (30 sec), 10% DMSO, read-out: IC50 PhoR^E
# T2 construct: The catalytic portion (DHp and CA domain) of E. coli PhoR (PhoR^E); made in house; host or cells: E. coli RIL
# Procedure, shortened: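 Histidine kinase (0.12 mg/ml, ≈4 μM) incubated with up to 20 mM fragment in 50 mM Tris HCl pH 8.5, 50 mM KCl, 5 mM MgCl2, 0.5 mM EDTA, 0.1 mM DTT; started with 0.1 μCi/μl γ-32P-ATP (0.03–0.06 μM ATP final). Phosphoprotein quantified by SDS-PAGE and phosphor-imaging, curve-fitted; DMSO controls.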
# [7] = tested on: Staphylococcus aureus; test: Antibacterial susceptibility testing (MIC/MBC), S. aureus; assay type: cell-based; conditions: Staphylococcus aureus; for MBC: read-out: MBC S. aureus DSM 20231
# Experimental: as §1
# [8] = tested on: Klebsiella pneumoniae; test: Antibacterial susceptibility testing (MIC), K. pneumoniae; assay type: cell-based
# Experimental: as §2
# [9] = tested on: Stenotrophomonas maltophilia; test: Antibacterial susceptibility testing (MIC), S. maltophilia; assay type: cell-based; conditions: clinical isolate B32/1, read-out: MIC S. maltophilia B32/1
# Experimental: as §2
# [10] = Solubility in kinase buffer; assay type: physicochemical; conditions: kinase buffer with 10% DMSO, pH 8.5, aqueous with cosolvent or surfactant or cyclodextrin, kinetic from dmso stock; kinase buffer in the presence of 10% DMSO; read-out: concentration above which not soluble / reduced solubility in kinase buffer
# [11] = tested on: Streptococcus suis; test: Antibacterial susceptibility testing (MIC), S. suis; assay type: cell-based; conditions: Streptococcus suis, read-out: MIC Streptococcus suis 3881/S10, strain 3881/S10
# Experimental: as §2
# [12] = tested on: Pseudomonas aeruginosa; test: Antibacterial susceptibility testing (MIC), P. aeruginosa; assay type: cell-based; conditions: Pseudomonas aeruginosa, ATCC27853; strain ATCC 27853
# Experimental: as §2
# [13] = tested on: Acinetobacter baumannii; test: Antibacterial susceptibility testing (MIC), A. baumannii; assay type: cell-based
# Experimental: as §2
# [14] = target: T3, HK WalK (DHp and CA domain) (Streptococcus pneumoniae, UniProt Q8DPL8); test: Differential scanning fluorimetry (DSF), WalK; assay type: binding
# T3 construct: WalK (amino acids from 208 to 449); N-terminal His6-3C site of vector pOPINF (own knowledge of the vector); made in house; host or cells: E. coli RIL
# Experimental: (§3) To monitor protein unfolding, the fluorescent dye Sypro orange was used[26]. Differential scanning fluorimetry (DSF) experiments were conducted in the iCycleriQ Real Time Detection System (Bio-Rad, Hercules, CA). Solutions of 20 μl of 0.1 mg/ml protein (final concentration), 200 μM fragment cocktails or individual fragments (final concentration), 10X sypro orange (final concentration) and buffer (100 mM TrisCl pH 8, 150 mM NaCl) were added to the wells of the 96-well iCycler iQ PCR plate. The plate was heated from 20 to 85 or 99 °C at a heating rate of 1 °C/min. The fluorescent intensity was measured with Ex/Em: 490/530 nm. Prism GraphPad v.5 was used for curve fitting and statistical analysis.
# [15] = target: T2, E. coli PhoR (PhoR^E); test: Aggregation analysis by native-PAGE, PhoR^E; conditions: 2 mM (S5 and S6 5 mM), 10% DMSO
# Experimental: (§4) E. coli PhoR and EnvZ, and S. aureus PhoR ([…], final concentration) were prepared in kinase buffer. […] DMSO in the assays was maintained to a final concentration 10% (v/v). After 30 min of incubation at room temperature Native polyacrylamide gel electrophoresis (Native-PAGE) loading buffer was added and samples loaded. Coomassie blue staining was used for protein visualization.
# [16] = target: S. aureus PhoR (PhoR^S) (Staphylococcus aureus, UniProt Q2FXN7); test: Aggregation analysis by native-PAGE, PhoR^S; conditions: 2 mM (S5 and S6 5 mM), 10% DMSO
# Experimental: as §4
# [17] = target: T4, E. coli EnvZ (Escherichia coli, UniProt P0AEJ4); test: Aggregation analysis by native-PAGE, EnvZ; conditions: 2 mM, 10% DMSO
# T4 construct: The catalytic portion (DHp and CA domain) of E. coli PhoR (PhoR^E), E. coli EnvZ; made in house; host or cells: E. coli RIL
# Experimental: as §4
# [18] = tested on: HK NblS (CA domain); test: Differential scanning fluorimetry (DSF), NblS; assay type: binding, Synechococcus sp. PCC 7942
# Experimental: as §3
# [19] = Escherichia coli, strain CFT 073, read-out: MIC E. coli CFT 073
# T1 sequence (Q8DPL8 208-449): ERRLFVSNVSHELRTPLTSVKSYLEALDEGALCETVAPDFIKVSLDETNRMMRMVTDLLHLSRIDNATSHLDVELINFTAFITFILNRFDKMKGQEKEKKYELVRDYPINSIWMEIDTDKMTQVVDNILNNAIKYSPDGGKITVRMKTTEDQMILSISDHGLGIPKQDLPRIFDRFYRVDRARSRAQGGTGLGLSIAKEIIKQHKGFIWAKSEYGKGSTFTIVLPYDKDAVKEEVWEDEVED
# T2 sequence (P08400 210-425): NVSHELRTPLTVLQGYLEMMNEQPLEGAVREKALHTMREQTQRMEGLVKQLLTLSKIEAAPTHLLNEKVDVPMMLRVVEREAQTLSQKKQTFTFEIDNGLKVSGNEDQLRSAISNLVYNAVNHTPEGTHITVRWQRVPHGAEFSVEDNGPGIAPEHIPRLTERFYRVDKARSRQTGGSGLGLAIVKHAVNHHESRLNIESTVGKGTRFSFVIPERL
# T4 sequence (P0AEJ4 240-440): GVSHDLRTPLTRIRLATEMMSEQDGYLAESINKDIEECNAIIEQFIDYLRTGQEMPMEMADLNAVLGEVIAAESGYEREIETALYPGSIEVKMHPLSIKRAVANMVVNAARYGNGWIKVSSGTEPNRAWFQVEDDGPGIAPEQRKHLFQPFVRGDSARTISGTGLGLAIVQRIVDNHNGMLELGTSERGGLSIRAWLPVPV
# Sequence of S. aureus PhoR (PhoR^S) (Q2FXN7 entry or part of it): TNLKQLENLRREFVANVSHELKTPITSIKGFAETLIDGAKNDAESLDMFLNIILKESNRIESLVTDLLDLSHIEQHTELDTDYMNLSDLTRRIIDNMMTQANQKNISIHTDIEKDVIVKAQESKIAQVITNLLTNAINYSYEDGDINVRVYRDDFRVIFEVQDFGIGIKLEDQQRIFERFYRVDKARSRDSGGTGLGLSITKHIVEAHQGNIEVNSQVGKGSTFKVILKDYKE
# T3 sequence (Q8DPL8 208-449): as the sequence (Q8DPL8 208-449) above
structure (smiles),measurement,setting,value
Nc1nccc(Nc2ccc(Br)cc2)n1 [F1.8],HC50,[1],> 500 µg/mL
same,MIC,"[2]; Escherichia coli, ATCC25276, strain ATCC 25276, read-out: MIC E. coli ATCC 25276",125 to 250 µg/mL
same,MBC,"[2]; Escherichia coli, strain CFT 073, read-out: MBC E. coli CFT 073",500 µg/mL
same,MIC,[2]; [19],< 250 µg/mL
same,MIC,"[2]; Escherichia coli, summary over E. coli strains, read-out: antibacterial effects (MIC) against E. coli",≥ 250 µg/mL
same,MIC E. coli ATCC 25276,[2]; strain ATCC 25276,250 µg/mL
same,MIC E. coli CFT 073,[2]; strain CFT 073,250 µg/mL
same,MBC,"[3]; DSM20044, strain DSM 20044",125 µg/mL
same,MIC,"[3]; clinical isolate T7/3, read-out: MIC S. epidermidis T7/3",31 µg/mL
same,MIC,"[3]; clinical isolate T37/8, read-out: MIC S. epidermidis T37/8",500 µg/mL
same,MIC,"[3]; clinical isolate T6119, read-out: MIC S. epidermidis T6119",250 µg/mL
same,MIC,"[3]; strain RP62A (biofilm producer), read-out: MIC S. epidermidis RP62A",500 µg/mL
same,MIC,"[3]; strain RP62A/1 (non-biofilm producer), read-out: MIC S. epidermidis RP62A/1",250 µg/mL
same,MIC,"[3]; summary over strains, read-out: MICs for the S. epidermidis strains",31 to 500 µg/mL
same,pIC50,[4],< 2.70
same,MIC,[5],128 µg/mL
same,inhibition at 2000 µM,"[6]; 2 mM, 30 sec, compared to negative control",> 50%
same,pIC50,[6],≥ 3.00
same,MIC,"[7]; ATCC reference strain 25293, read-out: MIC S. aureus 25293",250 µg/mL
same,MBC,"[7]; DSM20231, strain DSM 20231",250 µg/mL
same,MIC,"[7]; MRSA clinical isolate 127/08, read-out: MIC S. aureus 127/08",250 µg/mL
same,MIC,"[7]; MRSA clinical isolate 145/08, read-out: MIC S. aureus 145/08",250 µg/mL
same,MIC,"[7]; MRSA clinical isolate 274/08, read-out: MIC S. aureus 274/08",250 µg/mL
same,MIC,"[7]; MRSA, MRSA clinical isolate S908, read-out: MIC S. aureus S908",250 µg/mL
same,MIC,"[7]; MRSA, MRSA clinical isolate T4/6, read-out: MIC S. aureus T4/6",250 µg/mL
same,MIC,"[7]; MRSA, MRSA clinical isolate V4180, read-out: MIC S. aureus V4180",250 µg/mL
same,MIC,"[7]; MRSA, summary over strains, read-out: MICs for the S. aureus reference strains and the MRSA strains",125 to 250 µg/mL
same,MIC,"[8]; Klebsiella pneumoniae, ATCC700603, strain ATCC 700603",125 to 250 µg/mL
same,MIC K. pneumoniae ATCC700603,[8]; strain ATCC 700603,250 µg/mL
same,MIC,[9],> 500 µg/mL
same,solubility,[10],≤ 1000 µM
same,MIC,[11],250 µg/mL
same,MIC,[12],500 µg/mL
same,MIC,"[13]; MDR clinical isolate NM8, read-out: MIC A. baumannii NM8",125 µg/mL
same,MIC,"[13]; MDR clinical isolate NM35, read-out: MIC A. baumannii NM35",125 µg/mL
same,MIC,"[13]; MDR clinical isolate NM75, read-out: MIC A. baumannii NM75",250 µg/mL
same,MIC,"[13]; MDR clinical isolate NM109, read-out: MIC A. baumannii NM109",125 µg/mL
same,MIC,"[13]; MDR clinical isolate NM124, read-out: MIC A. baumannii NM124",125 µg/mL
same,MIC,"[13]; summary over strains, read-out: MICs for A. baumannii strains",125 to 250 µg/mL
"Oc1ccc2c(c1)[nH]c1ccccc12 [F2, 2-hydroxy-carbazole]",increase of WalK Tm,[14],3.9 °C
same,MIC,[2]; [19],> 500 µg/mL
same,MIC,"[3]; DSM20044, strain DSM 20044, read-out: MIC S. epidermidis DSM 20044",> 500 µg/mL
same,"HK aggregation, PhoR^E",[15],do not cause HK aggregation
same,pIC50,[4],< 2.70
same,inhibitory capacity for WalK autophosphorylation activity,"[4]; single concentration 5 mM, 30 sec",weak inhibitory capacity
same,pIC50,[6],3.52
same,MBC,"[7]; DSM20231, strain DSM 20231",> 500 µg/mL
same,MIC,"[7]; DSM20231, strain DSM 20231, read-out: MIC S. aureus DSM 20231",31 µg/mL
same,"HK aggregation, PhoR^S",[16],do not cause HK aggregation
same,"HK aggregation, EnvZ",[17],do not cause HK aggregation
same,increase of NblS Tm,[18],2.2 °C
